How the values were obtained:
[1] = test system: TNF-α production by LPS-activated RAW 264.7 macrophages; experiment: TNF-α production by LPS-stimulated RAW 264.7 macrophages (L929 fibroblast bioassay); assay type: cell-based, murine; conditions: Mus musculus, RAW264.7, 24 h incubation
Experimental: (§1) The murine peritoneal macrophage cell line RAW 264.7 was obtained from the American Type Culture Collection (ATCC, Rockville, MD, USA) and grown at 37 °C and 5% CO2 in DMEM F-12 that was supplemented with 10% FCS and gentamicin (50 µg/mL). RAW 264.7 cells (1 × 10^5 cells/well) were seeded in flat bottom 96-well tissue culture plates (Corning Inc., Corning, NY, USA) in the presence or absence of various concentrations of the samples (100, 20 and 4 µg/mL) and/or LPS (Escherichia coli 055:B5; Sigma-Aldrich). After a 24 h incubation period, culture supernatants were collected for NO and TNF-α assays. Nitrite, a stable NO metabolite, was determined by using the Griess test. As a positive control of inhibitory activity, intact, untreated macrophages were used. As a negative control, macrophages stimulated with 1 µg/mL LPS were used. […] TNF-α was measured by an L929 fibroblast bioassay. This assay system uses murine L929 cells sensitive to TNF-α. For this, murine fibroblast cell line L929 cells (ATCC) (2 × 10^5 cells/well) were seeded in flat bottom 96-well tissue culture plates (Corning Inc.) 24 h before of being inoculated with macrophage culture supernatant and actinomycin D (2 µg/mL) added. After 24 h of incubation with macrophage culture supernatant, L929 viability was assayed by MTT [3-(4,5-dimethylthiazol-2-yl)-2,5diphenyltetrazolium bromide] method. The cytokine levels were calculated by using a purified recombinant mouse cytokine to obtain a standard curve that correlates cellular viability and TNF-α concentration.

[2] = test system: NO production by LPS-activated RAW 264.7 macrophages; experiment: NO production by LPS-stimulated RAW 264.7 macrophages (Griess test); assay type: cell-based, murine; conditions: Mus musculus, RAW264.7; for IC50: LPS-stimulated RAW 264.7 macrophages, 24 h incubation
Experimental: as §1

[3] = test system: Mycobacterium bovis BCG strain Moreau; experiment: microbe, parasite or virus in culture; assay type: cell-based; conditions: Mycobacterium tuberculosis variant bovis BCG, 168 h, read-out: IC50 M. bovis BCG
RAW 264.7 cells = experiment: Lactate dehydrogenase (LDH) cytotoxicity assay; assay type: cell-based, murine; conditions: for toxicity (LDH release), in words: RAW 264.7 cells, cell viability by LDH release
Experimental: (§2) LDH assay was used to evaluate the toxicity of the studied samples towards macrophage cultures. The release of LDH (cytoplasmic enzyme lactate dehydrogenase) from RAW 264.7 cells treated with samples was determined using 50 µL of cell culture supernatant collected 24 h after the treatment, as described in the previous section. The LDH release, which represents an indirect indication of cytotoxicity, was determined colorimetrically using a commercial kit (Doles Reagentes e Equipamentos para Laboratorios Ltda., Goiânia, Brazil). The specific release was calculated as a percentage of the controls: non-treated macrophages as the negative control (O.D. 0.249, cytotoxicity 1.99% ± 0.62%) and 1% Triton X-100 (Vetec Chem., Duque de Caxias, Brazil) detergent treated macrophages as the positive control (O.D. 1.278, cytotoxicity 99.95% ± 2.26%). Final concentrations of DMSO, used as the carrier solvent for the samples, were tested in parallel as a control. Cytotoxicity was shown as percentage of controls. Tests were performed in triplicate and the mean value and standard deviation were calculated.

[4] = Lactate dehydrogenase (LDH) cytotoxicity assay; assay type: cell-based, murine; conditions: mouse, RAW 264.7 macrophage cells; LDH release from RAW 264.7 cells, 24 h after treatment
Experimental: as §2

Compound | IC50 [1] | IC50 [2] | IC50 [3] | toxicity (LDH release), in words (RAW 264.7 cells) | IC50 at 24 h [4] | inhibition at 20 µg/mL ([2]; positive control at 20 µg/mL) | cytotoxicity (specific LDH release, percentage of controls) (RAW 264.7 cells; 1% detergent, positive control, RAW 264.7 macrophages)
C=C1CC(O)C(Br)C(C)(C)C12CCC(C)(O)C(Cl)C2 (centres unmarked) [Compound 2] | > 284 µM | > 284 µM | 80.2 ± 4.3 µM | no toxicity whatsoever | > 284 µM | – | –
C=C1C[C@@H](O)CC(C)(C)[C@]12CCC(C)=C(Cl)C2 [Compound 3, Debromoelatol] | 134 ± 7.4 µM | 69.1 ± 4.7 µM | 82.4 ± 4.7 µM | no toxicity whatsoever | > 392 µM | – | –
C=C1CC[C@@H](Br)C(C)(C)[C@]12CC[C@](C)(Br)[C@@H](Cl)C2 [Compound 4, obtusane] | > 251 µM | 44.9 ± 3 µM | 44.7 ± 4 µM | only moderately toxic | 197.2 ± 1 µM | – | –
CC1CCC23C1CCC2(C)CC(C)C3(C)O (stereo not drawn) [Compound 5, (1S*,2S*,3S*,5S*,8S*,9S*)-2,3,5,9-tetramethyltricyclo[6.3.0.01.5]undecan-2-ol] | 393.4 ± 0.4 µM | 74.6 ± 5.8 µM | 205 ± 7.6 µM | no toxicity whatsoever | 416 ± 4.9 µM | – | –
[H]/N=C(/NC)NCCC[C@H](N)C(=O)O [L-NMMA, L-N-monomethyl-arginine, reference compound] | – | 71.3 ± 4.4 µM | – | – | – | 59.2% | –
Triton X-100 [reference compound] | – | – | – | – | – | – | 99.95% ± 2.26
